From patent US10987359B2, “Oxadiazepinone derivatives and methods of treating hepatitis B infections” (priority 2016, dated 2021)
pEC50: −log10 of the molar value.

Tested on: HBV
Test: HBV replication inhibition assay (BDNA assay) in HepG2.2.15 cells
Type: cell-based
Settings: Hepatitis B virus, HepG2.2.15, HBV replication assay (BDNA assay), HepG2.2.15 cells; read-out: DNA EC50
Outline: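 Supernatant encapsidated HBV DNA was measured by bDNA after DNase digestion and proteinase K release. Stably HBV-integrated HepG2.2.15 cells had two 3-day compound exposures (0.5% DMSO). Signals were background-subtracted and normalized to DMSO wells, and EC50 was obtained by four-parameter fit.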

| SMILES | pEC50 |
| --- | --- |
| CN1OC(COC(N)=O)Cn2nc3c(c2C1=O)CN(C(=O)Nc1ccc(F)c(Cl)c1)CC3 (stereo not shown) [Compound 057, (10-((3-chloro-4-fluorophenyl)carbamoyl)-2-methyl-1-oxo-1,2,4,5,8,9,10,11-octahydropyrido[4′,3′:3,4]pyrazolo[5,1-d][1,2,5]oxadiazepin-4-yl)methyl carbamate] | 7.00 to 9.00 |
| CN(C)CC1Cn2nc3c(c2C(=O)N(C)O1)CN(C(=O)Nc1ccc(F)c(Cl)c1)CC3 (stereo not shown) [Compound 058, N-(3-chloro-4-fluoro-phenyl)-4-[(dimethylamino)methyl]-2-methyl-1-oxo-5,8,9,11-tetrahydro-4H-pyrido[2,3]pyrazolo[2,4-d][1,2,5]oxadiazepine-10-carboxamide] | 7.00 to 9.00 |
| CN(C)C(=O)OCC1Cn2nc3c(c2C(=O)N(C)O1)CN(C(=O)Nc1ccc(F)c(Cl)c1)CC3 (stereo not shown) [Compound 059, [10-[(3-chloro-4-fluoro-phenyl)carbamoyl]-2-methyl-1-oxo-5,8,9,11-tetrahydro-4H-pyrido[2,3]pyrazolo[2,4-d][1,2,5]oxadiazepin-4-yl]methyl N,N-dimethylcarbamate] | 7.00 to 9.00 |
| CC1CON(C)C(=O)c2c3c(nn21)CCN(C(=O)Nc1ccc(F)c(Cl)c1)C3 (stereo not shown) [Compound 061, N-(3-chloro-4-fluoro-phenyl)-2,5-dimethyl-1-oxo-5,8,9,11-tetrahydro-4H-pyrido[2,3]pyrazolo[2,4-d][1,2,5]oxadiazepine-10-carboxamide] | 7.00 to 9.00 |
| CC1Cn2nc3c(c2C(=O)N(C)O1)CN(C(=O)Nc1ccc(F)c(Cl)c1)CC3 (stereo not shown) [Compound 062, N-(3-chloro-4-fluorophenyl)-2,4-dimethyl-1-oxo-1,4,5,8,9,11-hexahydropyrido[4′,3′:3,4]pyrazolo[5,1-d][1,2,5]oxadiazepine-10(2H)-carboxamide] | 7.00 to 9.00 |
| CC1Cn2nc3c(c2C(=O)N(C)O1)CN(C(=O)Nc1cccc(Cl)c1)CC3 (stereo not shown) [Compound 063, N-(3-chlorophenyl)-2,4-dimethyl-1-oxo-1,4,5,8,9,11-hexahydropyrido[4′,3′:3,4]pyrazole [5,1-d][1,2,5]oxadiazepine-10(2H)-carboxamide] | 7.00 to 9.00 |
| CN1OC(C)(C)Cn2nc3c(c2C1=O)CN(C(=O)Nc1ccc(F)c(Cl)c1)CC3 [Compound 064, N-(3-chloro-4-fluoro-phenyl)-2,4,4-trimethyl-1-oxo-5,8,9,11-tetrahydro pyrido[2,3]pyrazolo[2,4-d][1,2,5]oxadiazepine-10-carboxamide] | 7.00 to 9.00 |
| COCC1Cn2nc3c(c2C(=O)N(C)O1)CN(C(=O)Nc1ccc(F)c(Cl)c1)CC3 (stereo not shown) [Compound 065, N-(3-chloro-4-fluoro-phenyl)-4-(methoxymethyl)-2-methyl-1-oxo-5,8,9,11-tetrahydro-4H-pyrido[2,3]pyrazolo[2,4-d][1,2,5]oxadiazepine-10-carboxamide] | 7.00 to 9.00 |
| CN1OCCn2nc3c(c2C1=O)CN(C(=O)Nc1ccc(F)c(Cl)c1)CC3 [Compound 066, N-(3-chloro-4-fluoro-phenyl)-2-methyl-1-oxo-5,8,9,11-tetrahydro-4H-pyrido[2,3]pyrazolo[2,4-c][1,2,5]oxadiazepine-10-carboxamide] | 7.00 to 9.00 |
| C=CCN1OCCn2nc3c(c2C1=O)CN(C(=O)Nc1ccc(F)c(Cl)c1)CC3 [Compound 067, 2-allyl-N-(3-chloro-4-fluoro-phenyl)-1-oxo-5,8,9,11-tetrahydro-4H-pyrido[2,3]pyrazolo[2,4-c][1,2,5]oxadiazepine-10-carboxamide] | 7.00 to 9.00 |
| CCCN1OCCn2nc3c(c2C1=O)CN(C(=O)Nc1ccc(F)c(Cl)c1)CC3 [Compound 068, N-(3-chloro-4-fluoro-phenyl)-1-oxo-2-propyl-5,8,9,11-tetrahydro-4H-pyrido[2,3]pyrazolo[2,4-c][1,2,5]oxadiazepine-10-carboxamide] | 7.00 to 9.00 |
| CC1Cc2nn3c(c2CN1C(=O)Nc1cccc(Cl)c1)C(=O)N(C)OC(CO)C3 (stereo not shown) [Compound 070, N-(3-chlorophenyl)-4-(hydroxymethyl)-2,9-dimethyl-1-oxo-5,8,9,11-tetrahydro-4H-pyrido[2,3]pyrazolo[2,4-d][1,2,5]oxadiazepine-10-carboxamide] | 7.00 to 9.00 |
| COC(=O)C1Cn2nc3c(c2C(=O)N(C)O1)CN(C(=O)Nc1ccc(F)c(Cl)c1)CC3 (stereo not shown) [Compound 071, methyl 10-[(3-chloro-4-fluoro-phenyl)carbamoyl]-2-methyl-1-oxo-5,8,9,11-tetrahydro-4H-pyrido[2,3]pyrazolo[2,4-d][1,2,5]oxadiazepine-4-carboxylate] | < 6.00 |
| CN1OC(C(N)=O)Cn2nc3c(c2C1=O)CN(C(=O)Nc1ccc(F)c(Cl)c1)CC3 (stereo not shown) [Compound 072, N10-(3-chloro-4-fluoro-phenyl)-2-methyl-1-oxo-5,8,9,11-tetrahydro-4H-pyrido[2,3]pyrazolo[2,4-d][1,2,5]oxadiazepine-4,10-dicarboxamide] | 7.00 to 9.00 |
| CNC(=O)C1Cn2nc3c(c2C(=O)N(C)O1)CN(C(=O)Nc1ccc(F)c(Cl)c1)CC3 (stereo not shown) [Compound 073, N10-(3-chloro-4-fluoro-phenyl)-N4,2-dimethyl-1-oxo-5,8,9,11-tetrahydro-4H-pyrido[2,3]pyrazolo[2,4-d][1,2,5]oxadiazepine-4,10-dicarboxamide] | 7.00 to 9.00 |
| CN(C)C(=O)C1Cn2nc3c(c2C(=O)N(C)O1)CN(C(=O)Nc1ccc(F)c(Cl)c1)CC3 (stereo not shown) [Compound 074, N10-(3-chloro-4-fluoro-phenyl)-N4,N4,2-trimethyl-1-oxo-5,8,9,11-tetrahydro-4H-pyrido[2,3]pyrazolo[2,4-d][1,2,5]oxadiazepine-4,10-dicarboxamide] | 7.00 to 9.00 |
| C[C@@H]1Cc2nn3c(c2CN1C(=O)Nc1ccc(F)c(Cl)c1)C(=O)N(C)OCC3 [Compound 075, (9R)—N-(3-chloro-4-fluoro-phenyl)-2,9-dimethyl-1-oxo-5,8,9,11-tetrahydro-4H-pyrido[2,3]pyrazolo[2,4-c][1,2,5]oxadiazepine-10-carboxamide] | 7.00 to 9.00 |
| C[C@@H]1Cc2nn3c(c2CN1C(=O)Nc1ccc(F)c(C(F)(F)F)c1)C(=O)N(C)OCC3 [Compound 076, (R)—N-(4-fluoro-3-(trifluoromethyl)phenyl)-2,9-dimethyl-1-oxo-1,4,5,8,9,11-hexahydropyrido[4′,3′:3,4]pyrazolo[5,1-d][1,2,5]oxadiazepine-10(2H)-carboxamide] | 7.00 to 9.00 |
| C[C@@H]1Cc2nn3c(c2CN1C(=O)Nc1ccc(F)c(Br)c1)C(=O)N(C)OCC3 [Compound 077, (R)—N-(3-bromo-4-fluorophenyl)-2,9-dimethyl-1-oxo-1,4,5,8,9,11-hexahydropyrido[4′,3′:3,4]pyrazolo[5,1-d][1,2,5]oxadiazepine-10(2H)-carboxamide] | 7.00 to 9.00 |
| C[C@@H]1Cc2nn3c(c2CN1C(=O)Nc1ccnc(Br)c1F)C(=O)N(C)OCC3 [Compound 078, (R)—N-(2-bromo-3-fluoropyridin-4-yl)-2,9-dimethyl-1-oxo-1,4,5,8,9,11-hexahydropyrido[4′,3′:3,4]pyrazolo[5,1-d][1,2,5]oxadiazepine-10(2H)-carboxamide] | 7.00 to 9.00 |
| C[C@@H]1Cc2nn3c(c2CN1C(=O)Nc1ccc(F)c(C#N)c1)C(=O)N(C)OCC3 [Compound 079, (R)—N-(3-cyano-4-fluorophenyl)-2,9-dimethyl-1-oxo-1,4,5,8,9,11-hexahydropyrido[4′,3′:3,4]pyrazolo[5,1-d][1,2,5]oxadiazepine-10(2H)-carboxamide] | 7.00 to 9.00 |
| Cc1cc(NC(=O)N2Cc3c(nn4c3C(=O)N(C)OCC4)C[C@H]2C)ccc1F [Compound 080, (R)—N-(4-fluoro-3-methylphenyl)-2,9-dimethyl-1-oxo-1,4,5,8,9,11-hexahydropyrido[4′,3′:3,4]pyrazolo[5,1-d][1,2,5]oxadiazepine-10(2H)-carboxamide] | 7.00 to 9.00 |
| C[C@@H]1Cc2nn3c(c2CN1C(=O)Nc1cc(F)c(F)c(Cl)c1)C(=O)N(C)OCC3 [Compound 081, (R)—N-(3-chloro-4,5-difluorophenyl)-2,9-dimethyl-1-oxo-1,4,5,8,9,11-hexahydropyrido[4′,3′:3,4]pyrazolo[5,1-d][1,2,5]oxadiazepine-10(2H)-carboxamide] | 7.00 to 9.00 |
| CCOCC1Cn2nc3c(c2C(=O)N(C)O1)CN(C(=O)Nc1ccc(F)c(Cl)c1)CC3 (stereo not shown) [Compound 101, N-(3-chloro-4-fluoro-phenyl)-4-(ethoxymethyl)-2-methyl-1-oxo-5,8,9,11-tetrahydro-4H-pyrido[2,3]pyrazolo[2,4-d][1,2,5]oxadiazepine-10-carboxamide] | 7.00 to 9.00 |
| C=CCOCC1Cn2nc3c(c2C(=O)N(C)O1)CN(C(=O)Nc1ccc(F)c(Cl)c1)CC3 (stereo not shown) [Compound 102, 4-(allyloxymethyl)-N-(3-chloro-4-fluoro-phenyl)-2-methyl-1-oxo-5,8,9,11-tetrahydro-4H-pyrido[2,3]pyrazolo[2,4-d][1,2,5]oxadiazepine-10-carboxamide] | 7.00 to 9.00 |
| CCCOCC1Cn2nc3c(c2C(=O)N(C)O1)CN(C(=O)Nc1ccc(F)c(Cl)c1)CC3 (stereo not shown) [Compound 103, N-(3-chloro-4-fluoro-phenyl)-2-methyl-1-oxo-4-(propoxymethyl)-5,8,9,11-tetrahydro-4H-pyrido[2,3]pyrazolo[2,4-d][1,2,5]oxadiazepine-10-carboxamide] | 7.00 to 9.00 |
| CN1OC(COCC2CC2)Cn2nc3c(c2C1=O)CN(C(=O)Nc1ccc(F)c(Cl)c1)CC3 (stereo not shown) [Compound 104, N-(3-chloro-4-fluoro-phenyl)-4-(cyclopropylmethoxymethyl)-2-methyl-1-oxo-5,8,9,11-tetrahydro-4H-pyrido[2,3]pyrazolo[2,4-d][1,2,5]oxadiazepine-10-carboxamide] | 7.00 to 9.00 |
| CN1OC(COCC(F)F)Cn2nc3c(c2C1=O)CN(C(=O)Nc1ccc(F)c(Cl)c1)CC3 (stereo not shown) [Compound 105, N-(3-chloro-4-fluoro-phenyl)-4-(2,2-difluoroethoxymethyl)-2-methyl-1-oxo-5,8,9,11-tetrahydro-4H-pyrido[2,3]pyrazolo[2,4-d][1,2,5]oxadiazepine-10-carboxamide] | 7.00 to 9.00 |
